Legend:
Format in all cases: in vivo
[1] = test system: Echinochloa oryzacola Vasing.; test: Test Example 1: herbicidal activity, application before weed generation in submerged conditions (symbol A); settings: application herbicide amount 320 g/ha
How it was run: (§1)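 In a flooded pot test with alluvial soil, the emulsion-formulated compound was diluted with water to a predetermined amount and applied to the floodwater immediately on the sowing day. Pots were held in a greenhouse at 25–30 °C for 3 weeks before each weed was rated.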

Scirpus juncoides = test: Test Example 1: herbicidal activity, application before weed generation in submerged conditions (symbol B); settings: application herbicide amount 320 g/ha
How it was run: as §1

Setaria viridis [2] = test: Test Example 4: herbicidal effect by soil treatment (symbol G); settings: application herbicide amount 320 g/ha
How it was run: (§2)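 Seeds were sown in sterilized diluvial soil, covered with about 1.5 cm of soil, and the soil surface was sprayed with a water-diluted emulsion of the compound at a predetermined rate. Plants grew in a greenhouse at 25° C. to 30° C.; effects were scored visually 3 weeks after application.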

Amaranthus retroflexus = test: Test Example 4: herbicidal effect by soil treatment (symbol N); settings: application herbicide amount 320 g/ha
How it was run: as §2

Chenopodium album = test: Test Example 4: herbicidal effect by soil treatment (symbol O); settings: application herbicide amount 320 g/ha
How it was run: as §2

Galium spurium = test: Test Example 4: herbicidal effect by soil treatment (symbol Q); settings: application herbicide amount 320 g/ha
How it was run: as §2

Veronica persica = test: Test Example 4: herbicidal effect by soil treatment (symbol R); settings: application herbicide amount 320 g/ha
How it was run: as §2

Setaria viridis [3] = test: Test Example 5: herbicidal effect by foliage application, plastic box (symbol G); settings: 320 g/ha, 3 weeks after application
How it was run: (§3)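 Post-emergence spray; diluvial soil (sterilized), ~1.5 cm seed cover; greenhouse 25–30° C; 14-day-old plants; water-diluted emulsion at predetermined dose; visual score at 3 wk post-treatment.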

[4] = test system: Echinochloa crus-galli var. crus-galli; test: Test Example 5: herbicidal effect by foliage application, plastic box (symbol H); settings: 320 g/ha, 3 weeks after application
How it was run: as §3

Alopecurus myosuroides = test: Test Example 5: herbicidal effect by foliage application, plastic box (symbol J); settings: 320 g/ha, 3 weeks after application
How it was run: as §3

Row | SMILES | Herbicidal effect grade, A: Echinochloa oryzacola Vasing. [1] | Herbicidal effect grade, B: Scirpus juncoides (Scirpus juncoides) | G: Setaria viridis, herbicidal effect grade (Setaria viridis [2]) | N: Amaranthus retroflexus, herbicidal effect grade (Amaranthus retroflexus) | O: Chenopodium album, herbicidal effect grade (Chenopodium album) | Q: Galium spurium, herbicidal effect grade (Galium spurium) | R: Veronica persica, herbicidal effect grade (Veronica persica) | G: Setaria viridis, herbicidal effect grade (Setaria viridis [3]) | H: Echinochloa crus-galli var. crus-galli, herbicidal effect grade [4] | J: Alopecurus myosuroides, herbicidal effect grade (Alopecurus myosuroides) | G: Setaria viridis, herbicidal effect (criteria of Test Example 1) (Setaria viridis [3]) | H: Echinochloa crus-galli var. crus-galli, herbicidal effect (criteria of Test Example 1) [4] | J: Alopecurus myosuroides, herbicidal effect (criteria of Test Example 1) (Alopecurus myosuroides) | Herbicidal effect grade, G: Setaria viridis (Setaria viridis [2]) | Herbicidal effect grade, N: Amaranthus retroflexus (Amaranthus retroflexus) | Herbicidal effect grade, O: Chenopodium album (Chenopodium album) | Herbicidal effect grade, Q: Galium spurium (Galium spurium) | Herbicidal effect grade, R: Veronica persica (Veronica persica)
1 | CON=C(C)CC1CC(O)=C(c2c(C)cc(Oc3ccccc3)cc2C)C1=O (centres unmarked) [6-052] | 4 (Herbicidal ratio of 70% or higher and lower than 90%) | 1 (Herbicidal ratio of 5% or higher and lower than 20%) | 3 (Herbicidal ratio of 40% or higher and lower than 70%) | 0 (Herbicidal ratio of 5% or lower (almost no effect)) | 0 (Herbicidal ratio of 5% or lower (almost no effect)) | 0 (Herbicidal ratio of 5% or lower (almost no effect)) | 0 (Herbicidal ratio of 5% or lower (almost no effect)) | 5 (Herbicidal ratio of 90% or more (almost completely withered)) | 5 (Herbicidal ratio of 90% or more (almost completely withered)) | 4 (Herbicidal ratio of 70% or higher and lower than 90%) |  |  |  |  |  |  |  | 
2 | CON=C(C)CC1CC(O)=C(c2c(C)cc(C(C)=NOC)cc2C)C1=O (centres unmarked) [6-065] | 4 (Herbicidal ratio of 70% or higher and lower than 90%) | 2 (Herbicidal ratio of 20% or higher and lower than 40%) | 5 (Herbicidal ratio of 90% or more (almost completely withered)) | 4 (Herbicidal ratio of 70% or higher and lower than 90%) | 3 (Herbicidal ratio of 40% or higher and lower than 70%) | 4 (Herbicidal ratio of 70% or higher and lower than 90%) | 3 (Herbicidal ratio of 40% or higher and lower than 70%) |  |  |  | 5 (Herbicidal ratio of 90% or more (almost completely withered)) | 5 (Herbicidal ratio of 90% or more (almost completely withered)) | 5 (Herbicidal ratio of 90% or more (almost completely withered)) |  |  |  |  | 
3 | CON=C(C)CC1CC(OC(=O)N(C)C)=C(c2c(C)cc(-c3ccc(Cl)cc3)cc2C)C1=O (mixture of isomers) [6-063] | 5 (Herbicidal ratio of 90% or more (almost completely withered)) | 2 (Herbicidal ratio of 20% or higher and lower than 40%) | 1 (Herbicidal ratio of 5% or higher and lower than 20%) | 0 (Herbicidal ratio of 5% or lower (almost no effect)) | 0 (Herbicidal ratio of 5% or lower (almost no effect)) | 0 (Herbicidal ratio of 5% or lower (almost no effect)) | 0 (Herbicidal ratio of 5% or lower (almost no effect)) |  |  |  | 5 (Herbicidal ratio of 90% or more (almost completely withered)) | 5 (Herbicidal ratio of 90% or more (almost completely withered)) | 3 (Herbicidal ratio of 40% or higher and lower than 70%) |  |  |  |  | 
4 | CON=C(C)CC1CC(OC(=O)N2CCOCC2)=C(c2c(C)cc(C)cc2OC)C1=O (centres unmarked) [6-094] | 5 (Herbicidal ratio of 90% or more (almost completely withered)) | 5 (Herbicidal ratio of 90% or more (almost completely withered)) |  |  |  |  |  |  |  |  | 5 (Herbicidal ratio of 90% or more (almost completely withered)) | 5 (Herbicidal ratio of 90% or more (almost completely withered)) | 5 (Herbicidal ratio of 90% or more (almost completely withered)) | 5 (Herbicidal ratio of 90% or more (almost completely withered)) | 0 (Herbicidal ratio of 5% or lower (almost no effect)) | 5 (Herbicidal ratio of 90% or more (almost completely withered)) | 0 (Herbicidal ratio of 5% or lower (almost no effect)) | 3 (Herbicidal ratio of 40% or higher and lower than 70%)
5 | COc1cc(Br)cc(C)c1C1=C(O)CC(CC(C)=O)C1=O (centres unmarked) [7-027, 2-(4-bromo-2-methoxy-6-methylphenyl)-3-hydroxy-5-(2-oxopropyl)cyclopent-2-enone] | 4 (Herbicidal ratio of 70% or higher and lower than 90%) | 0 (Herbicidal ratio of 5% or lower (almost no effect)) |  |  |  |  |  |  |  |  | 5 (Herbicidal ratio of 90% or more (almost completely withered)) | 5 (Herbicidal ratio of 90% or more (almost completely withered)) | 1 (Herbicidal ratio of 5% or higher and lower than 20%) | 5 (Herbicidal ratio of 90% or more (almost completely withered)) | 0 (Herbicidal ratio of 5% or lower (almost no effect)) | 0 (Herbicidal ratio of 5% or lower (almost no effect)) | 0 (Herbicidal ratio of 5% or lower (almost no effect)) | 0 (Herbicidal ratio of 5% or lower (almost no effect))
6 | CCc1cc(-c2ccc(Cl)cc2)cc(C)c1C1=C(O)CC(CC(C)=NOC)C1=O (centres unmarked) [6-066] | 5 (Herbicidal ratio of 90% or more (almost completely withered)) | 3 (Herbicidal ratio of 40% or higher and lower than 70%) | 5 (Herbicidal ratio of 90% or more (almost completely withered)) | 2 (Herbicidal ratio of 20% or higher and lower than 40%) | 0 (Herbicidal ratio of 5% or lower (almost no effect)) | 0 (Herbicidal ratio of 5% or lower (almost no effect)) | 3 (Herbicidal ratio of 40% or higher and lower than 70%) |  |  |  | 5 (Herbicidal ratio of 90% or more (almost completely withered)) | 5 (Herbicidal ratio of 90% or more (almost completely withered)) | 5 (Herbicidal ratio of 90% or more (almost completely withered)) |  |  |  |  | 
7 | CCc1cc(-c2ccc(Cl)cc2)cc(C)c1C1=C(OC(=O)N2CCOCC2)CC(CC(C)=NOC)C1=O (mixture of isomers) [6-064] | 5 (Herbicidal ratio of 90% or more (almost completely withered)) | 0 (Herbicidal ratio of 5% or lower (almost no effect)) | 5 (Herbicidal ratio of 90% or more (almost completely withered)) | 0 (Herbicidal ratio of 5% or lower (almost no effect)) | 0 (Herbicidal ratio of 5% or lower (almost no effect)) | 0 (Herbicidal ratio of 5% or lower (almost no effect)) | 0 (Herbicidal ratio of 5% or lower (almost no effect)) |  |  |  | 5 (Herbicidal ratio of 90% or more (almost completely withered)) | 5 (Herbicidal ratio of 90% or more (almost completely withered)) | 3 (Herbicidal ratio of 40% or higher and lower than 70%) |  |  |  |  | 
8 | CON=C(C)CC1CC(OC(=O)COc2ccccc2)=C(c2c(C)cc(C)cc2OC)C1=O (centres unmarked) [6-091] | 5 (Herbicidal ratio of 90% or more (almost completely withered)) | 5 (Herbicidal ratio of 90% or more (almost completely withered)) |  |  |  |  |  |  |  |  | 5 (Herbicidal ratio of 90% or more (almost completely withered)) | 5 (Herbicidal ratio of 90% or more (almost completely withered)) | 5 (Herbicidal ratio of 90% or more (almost completely withered)) | 5 (Herbicidal ratio of 90% or more (almost completely withered)) | 4 (Herbicidal ratio of 70% or higher and lower than 90%) | 3 (Herbicidal ratio of 40% or higher and lower than 70%) | 0 (Herbicidal ratio of 5% or lower (almost no effect)) | 4 (Herbicidal ratio of 70% or higher and lower than 90%)
